Tests used:
[1] = system: Black Skirt Tetras (Gymnocorymbus ternetzi); assay: Fish mortality, MC in ethanol vs MC tablets (Comparative Example 2); format: in vivo; conditions: 300 mg MC in 95% EtOH/water added at once, 7.1 ppm TAC
Description: (§1) A study was performed in which GlowLite (Hemigrammus erthrozonus) and Black Skirt Tetras (Gymnocorymbus ternetzi) were subjected to treatment with MC dissolved in 95% Ethanol (then diluted with water) and another set of the same fish subjected to MC tablets as described in EXAMPLE 1 dosed to equal levels of MC.
(§2) Part 1: Four 5-gallon hexagonal fish tanks were set up as follows: • (a) Hex-1: 5 Black Skirt Tetras (Control Tank—0 ppm TAC) • (b) Hex-2: 5 Black Skirt Tetras (Experimental Tank) • (c) Hex-3: 11 Glow Lite Tetras (Control Tank—0 ppm TAC) • (d) Hex-4: 11 Glow Lite Tetras (Experimental Tank)
(§3) The fish were allowed to acclimate with their surroundings for a period of three days. For the experimental tanks, 300 mg of MC dissolved in 30 g 95% EtOH followed by dilution to 100 mLs total volume with DI water was added. For the control tanks 30 g 95% EtOH diluted to 100 mLs total volume with DI water was added. TAC was measured in the experimental tanks 10 minutes after the addition of the MC solution: HEX-2=7.1 ppm TAC; HEX-4=6.0 ppm TAC. Within three hours, all 11 of the Glow Lite Tetras were dead and 3 out of 5 Black Skirt Tetras were dead.
(§4) Part 2: Three 5-gallon hexagonal fish tanks were set up as follows: • (a) Hex-1: 5 Black Skirt Tetras • (b) Hex-3: 5 Glow Lite Tetras • (c) Hex-4: 5 Glow Lite Tetras
(§5) The fish were allowed to acclimate with their surroundings for a period of 4 hours. All tanks began with 0 ppm TAC. Tablets of MC made from 0.11 g MC pressed with 0.89 g MgSO4, with a ⅝″-diameter tablet as described in EXAMPLE 1 were added to each tank as follows: • (a) Hex-1: 5 Black Skirt Tetras—3 tablets on day 1, 4 tablets on day 2 • (b) Hex-3: 5 Glow Lite Tetras—3 tablets on day 1, 3 tablets on day 2 • (c) Hex-4: 5 Glow Lite Tetras—2 tablets on day 1, 2 tablets on day 2
(§6) Tanks Hex-1 and 2 measured above 6 ppm TAC each day, but took approximately three hours to reach a TAC above 6 ppm. HEX 4 rose to a TAC level of 4.1 ppm TAC within the first day. No fish died throughout the 48-hour experiment.

[2] = system: GlowLite (Hemigrammus erthrozonus); assay: as above; format: in vivo; conditions: of 11 Glow Lite Tetras, within three hours; 300 mg MC in 95% EtOH/water added at once, 6.0 ppm TAC
Description: as §1, §2, §3, §4, §5, §6

[3] = TAC measured in the fish tanks of Comparative Example 2; format: physicochemical; conditions: 10 minutes after addition of 300 mg MC in 95% EtOH diluted to 100 mL
Description: as §3, §5, §6

For `CC1(C)NC(=O)C(C)(C)N1Cl` [MC, 1-Chloro-2,2,5,5-tetramethylimidazolidin-4-one], the dead fish ([1]; within 24 hours) was “the remainder of the Black Skirt Tetras were dead”, the dead fish ([1]; within three hours) was 3 out of 5 and the dead fish [2] was 11. For the same molecule, the “TAC in experimental tank” value ([3]; HEX-2 (Black Skirt Tetras)) was 7.1 ppm TAC and the “TAC in experimental tank” value ([3]; HEX-4 (Glow Lite Tetras)) was 6.0 ppm TAC.

Reference: patent US8563587B2, “Methods and compositions for treating fish diseases” (HaloSource, Inc., priority 2006, dated 2013)
